{
  "source": "ChEMBL document CHEMBL4806962",
  "about": "“Methods and Compositions for Treating Cancer” (2020)",
  "key": {"[1]": {"tested_on": "PBMC", "experiment": "Effects of compound on IL-2 production in anti-CD3/CD28-stimulated human PBMCs assessed as increase in IL-2 level after 2 days by ELISA", "format": "functional, tissue-based", "settings": "dose 1-10 µM, time 2.0 day"}, "[2]": {"tested_on": "PBMC", "experiment": "Effects of compound on IL-17A production in anti-CD3/CD28-stimulated human PBMCs assessed as fold decrease in IL-17A level at 30 uM after 2 days by ELISA", "format": "functional, tissue-based", "settings": "time 2.0 day"}, "[3]": {"experiment": "Ratio of FC for induction of INF-gamma production in anti-CD3/CD28-stimulated human PBMCs at 1 uM after 24 hrs in presence of ZM-241385 and MRS-1754 to FC for induction of INF-gamma production in anti-CD3/CD28-stimulated human PBMCs at 1 uM after 24 hrs in presence of ZM-241385 and absence of MRS-1754", "format": "functional, PBMC"}, "[4]": {"tested_on": "PBMC", "experiment": "Effects of compound on IL-2 production in anti-CD3/CD28-stimulated human PBMCs assessed as increase in IL-2 level after 3 days by ELISA", "format": "functional, tissue-based", "settings": "dose 3-60 µM, time 3.0 day"}, "[5]": {"target": "T1, Probable G-protein coupled receptor 174 (Homo sapiens, UniProt Q9BXC1)", "T1 sequence (Q9BXC1 whole entry)": "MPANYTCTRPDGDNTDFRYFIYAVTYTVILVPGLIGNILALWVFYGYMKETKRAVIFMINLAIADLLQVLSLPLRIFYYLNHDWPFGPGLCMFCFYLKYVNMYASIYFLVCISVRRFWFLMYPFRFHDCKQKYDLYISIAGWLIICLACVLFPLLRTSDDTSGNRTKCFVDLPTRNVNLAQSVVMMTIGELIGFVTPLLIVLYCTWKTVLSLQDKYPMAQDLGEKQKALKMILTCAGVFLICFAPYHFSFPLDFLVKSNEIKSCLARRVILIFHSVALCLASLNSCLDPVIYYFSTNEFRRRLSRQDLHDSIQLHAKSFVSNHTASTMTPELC", "experiment": "Inverse agonist activity at GPR174 in anti-CD3/CD28-stimulated human PBMCs assessed as reduction in FoxP3-positive Helios-positive nTreg cells after 7 days by flow cytometric analysis", "format": "functional, tissue-based", "settings": "PBMC, filed as inverse agonist, dose 3-30 µM, time 7.0 day"}, "[6]": {"experiment": "Effects of compound on anti-CD3/CD28-stimulated human PBMCs assessed as CD8-positive cells population at 10 uM after 2 days by flow cytometric analysis", "format": "functional, PBMC", "settings": "time 2 day"}, "[7]": {"experiment": "Induction of IL-2 production in anti-CD3/CD28-stimulated human PBMCs assessed as fold increase in IL-2 level at 1 uM after 24 hrs in presence of 0.1 uM A2aR inhibitor PBF-509 by ELISA", "format": "functional, PBMC"}, "[8]": {"target": "T1, Probable G-protein coupled receptor 174", "experiment": "Antagonist activity at GPR174 (unknown origin) expressed in HEK293 cells assessed as inhibition of PS-induced GPR174 signaling incubated for 15 mins by GloSensor assay", "format": "functional, cell-based", "settings": "filed as antagonist"}, "[9]": {"experiment": "Induction of TNF production in anti-CD3/CD28-stimulated human PBMCs assessed as fold increase in TNF level at 1 uM after 24 hrs in presence of 0.75 ug/ml ADA by ELISA", "format": "functional, PBMC"}, "[10]": {"tested_on": "Splenocyte", "experiment": "Effects of compound on IL-2 production in anti-CD3/CD28-stimulated GPR174 knock out mouse spleenocytes assessed as fold increase in IL-2 level at 0.3 uM after 2 days in presence of NECA", "format": "functional, cell-based", "settings": "time 2.0 day"}, "[11]": {"tested_on": "PBMC", "experiment": "Effects of compound on INF-gamma production in anti-CD3/CD28-stimulated human PBMCs assessed as fold increase in INF-gamma level at 30 uM after 2 days by ELISA", "format": "functional", "settings": "time 2.0 day"}, "[12]": {"tested_on": "PBMC", "experiment": "Effect of compound on human PBMCs assessed as reduction in CTLA4 expression in memory Treg cells after 1 day by flow cytometric analysis", "format": "functional, cell-based", "settings": "dose 0.19-6 µM"}, "[13]": {"experiment": "Ratio of FC for induction of IL-2 production in anti-CD3/CD28-stimulated human PBMCs at 1 uM after 24 hrs in presence of ZM-241385 and MRS-1754 to FC for induction of IL-2 production in anti-CD3/CD28-stimulated human PBMCs at 1 uM after 24 hrs in presence of ZM-241385 and absence of MRS-1754", "format": "functional, PBMC"}, "[14]": {"tested_on": "PBMC", "experiment": "Effects of compound on TNF-alpha production in anti-CD3/CD28-stimulated human PBMCs assessed as fold increase in TNF-alpha level at 30 uM after 2 days by ELISA", "format": "functional, tissue-based", "settings": "time 2.0 day"}, "[15]": {"target": "T1, Probable G-protein coupled receptor 174", "experiment": "Inverse agonist activity at human GPR174 assessed as fold decrease in Gs signalling activity by CRA", "format": "functional", "settings": "filed as inverse agonist"}, "[16]": {"experiment": "Effects of compound on anti-CD3/CD28-stimulated human PBMCs assessed as non-T cells population at 10 uM after 4 hrs by flow cytometric analysis", "format": "functional, PBMC"}, "[17]": {"target": "T1, Probable G-protein coupled receptor 174", "experiment": "Antagonist activity at GPR174 (unknown origin) expressed in HEK293 cells assessed as inhibition of PS-induced GPR174 signaling at 1 to 2 uM incubated for 15 mins by GloSensor assay", "format": "functional, cell-based", "set-up": "scale not given: the % may be the effect or the level left", "settings": "filed as antagonist, dose 1-2 µM"}, "[18]": {"experiment": "Ratio of FC for induction of INF-gamma production in anti-CD3/CD28-stimulated human PBMCs at 1 uM after 24 hrs in presence of PBF-509 and MRS-1754 to FC for induction of INF-gamma production in anti-CD3/CD28-stimulated human PBMCs at 1 uM after 24 hrs in presence of PBF-509 and absence of MRS-1754", "format": "functional, PBMC"}, "[19]": {"tested_on": "PBMC", "experiment": "Effect of compound on human PBMCs assessed as reduction in CTLA4 expression in naive Treg cells after 1 day by flow cytometric analysis", "format": "functional, cell-based", "settings": "dose 0.19-6 µM"}, "[20]": {"tested_on": "PBMC", "experiment": "Effects of compound on IL-10 production in anti-CD3/CD28-stimulated human PBMCs assessed as fold increase in IL-10 level at 30 uM after 2 days by ELISA", "format": "functional, tissue-based", "settings": "time 2.0 day"}, "[21]": {"experiment": "Effects of compound on anti-CD3/CD28-stimulated human PBMCs assessed as non-T cells population at 10 uM after 2 days by flow cytometric analysis", "format": "functional, PBMC", "settings": "time 2 day"}, "[22]": {"experiment": "Ratio of FC for induction of TNF production in anti-CD3/CD28-stimulated human PBMCs at 1 uM after 24 hrs in presence of PBF-509 and MRS-1754 to FC for induction of TNF production in anti-CD3/CD28-stimulated human PBMCs at 1 uM after 24 hrs in presence of PBF-509 and absence of MRS-1754", "format": "functional, PBMC"}, "[23]": {"tested_on": "PBMC", "experiment": "Effect of compound on human PBMCs assessed as reduction in CTLA4 expression in memory non-Treg cells after 1 day by flow cytometric analysis", "format": "functional, cell-based", "settings": "dose 0.19-6 µM"}, "[24]": {"tested_on": "Splenocyte", "experiment": "Effects of compound on IL-2 production in anti-CD3/CD28-stimulated GPR174 knockdown mouse splenocytes assessed as increase in IL-2 levels at 10 uM after 48 hrs", "format": "functional, cell-based"}, "[25]": {"target": "T1, Probable G-protein coupled receptor 174", "experiment": "Inverse agonist activity at GPR174 in anti-CD3/CD28-stimulated human PBMCs assessed as increase in FoxP3-positive Helios-negative T cells at 100 uM after 3 days by flow cytometric analysis", "format": "functional, tissue-based", "settings": "PBMC, filed as inverse agonist, time 3.0 day"}, "[26]": {"tested_on": "PBMC", "experiment": "Effects of compound on IL-2 production in anti-CD3/CD28-stimulated human PBMCs assessed as increase in IL-2 level at 30 uM after 2 days by ELISA", "format": "functional, tissue-based", "settings": "time 2.0 day"}, "[27]": {"tested_on": "PBMC", "experiment": "Effect of compound on human PBMCs assessed as reduction in TGIT expression in CD8-positive T cells after 1 day by flow cytometric analysis", "format": "functional, cell-based", "settings": "dose 1.25-5 µM"}, "[28]": {"tested_on": "PBMC", "experiment": "Effects of compound on IL-6 production in anti-CD3/CD28-stimulated human PBMCs assessed as fold increase in IL-6 level at 30 uM after 2 days by ELISA", "format": "functional, tissue-based", "settings": "time 2.0 day"}, "[29]": {"tested_on": "Splenocyte", "experiment": "Effects of compound on IL-2 production in anti-CD3/CD28-stimulated wild type mouse splenocytes assessed as increase in IL-2 levels at 10 uM after 48 hrs", "format": "functional, cell-based"}},
  "note": "The source made the active and inactive calls. The rule behind the calls is not given here.",
  "data": [
    {"molecule": "CC1CCN(c2cc(N3CCN(S(=O)(=O)c4ccccc4)CC3)c([N+](=O)[O-])cc2F)CC1", "values": [
      {"measurement": "Activity", "setting": "[1]", "value": "Dose-Dependent Effect"},
      {"measurement": "Activity", "setting": "[2]", "value": "Active"},
      {"measurement": "Ratio", "setting": "[3]", "value": 1},
      {"measurement": "Activity", "setting": "[4]", "value": "Dose-Dependent Effect"},
      {"measurement": "Activity", "setting": "[5]", "value": "Dose-Dependent Effect"},
      {"measurement": "Activity", "setting": "[6]", "value": 27.5, "unit": "%"},
      {"measurement": "fold change (FC)", "setting": "[7]", "value": 1.9},
      {"measurement": "Activity", "setting": "[8]", "value": "Dose-Dependent Effect"},
      {"measurement": "fold change (FC)", "setting": "[9]", "value": 1.9},
      {"measurement": "Activity", "setting": "[10]", "value": "inactive"},
      {"measurement": "Activity", "setting": "[11]", "value": "Active"},
      {"measurement": "Activity", "setting": "[12]", "value": "Dose-Dependent Effect"},
      {"measurement": "Ratio", "setting": "[13]", "value": 0.7},
      {"measurement": "Activity", "setting": "[14]", "value": "Active"},
      {"measurement": "fold change (FC)", "setting": "[15]", "value": 0.2},
      {"measurement": "Activity", "setting": "[16]", "value": 33.9, "unit": "%"},
      {"measurement": "Activity", "setting": "[17]", "value": 100, "unit": "%"},
      {"measurement": "Ratio", "setting": "[18]", "value": 1},
      {"measurement": "Activity", "setting": "[19]", "value": "Dose-Dependent Effect"},
      {"measurement": "Activity", "setting": "[20]", "value": "Active"},
      {"measurement": "Activity", "setting": "[21]", "value": 33.1, "unit": "%"},
      {"measurement": "Ratio", "setting": "[22]", "value": 1},
      {"measurement": "Activity", "setting": "[23]", "value": "Dose-Dependent Effect"},
      {"measurement": "Activity", "setting": "[24]", "value": "inactive"},
      {"measurement": "Activity", "setting": "[25]", "value": "Active"},
      {"measurement": "Activity", "setting": "[26]", "value": "Active"},
      {"measurement": "Activity", "setting": "[27]", "value": "Dose-Dependent Effect"},
      {"measurement": "Activity", "setting": "[28]", "value": "Active"},
      {"measurement": "Activity", "setting": "[29]", "value": "Active"}
    ]}
  ]
}
